This note sets out measurements from article PMC9822352, “Design, Synthesis and Evaluation of New Multifunctional Benzothiazoles as Photoprotective, Antioxidant and Antiproliferative Agents” (Molecules, 2022).

In this assay the test system is HaCat cell line. As to the kind of experiment: Pro-apoptotic activity (Annexin V method), HaCat. It counts as cell-based, human. As to conditions: 24 h. The method, then:
The Annexin V assay was conducted at two concentrations approaching IC50 values toward the selected cell lines reported in Table 3. The complete set of data is reported in Table 4, while representative data from the analysis of the corresponding Muse Analyzer plots are shown in Figure 2.
Apoptosis assays were performed with a Muse® Cell Analyzer instrument (Merck Millipore, Burlington, MA, USA) and the kit on Colo-38 and HaCat cell lines according to the manufacturer’s protocol. Cells were treated and exposed to the compounds for 24 h. This procedure is based on the detection of PS (PhosphatidylSerine) exposed on the external membrane of apoptotic cells by Annexin V. Four populations of cells can be distinguished using this assay: live, early apoptotic, late apoptotic and dead cells. The MUSE cell analyzer can discriminate “early” from “late” apoptosis since “early apoptotic cells” are Annexin V-positive and 7-AAD-negative, while “late apoptotic cells” are positive to both Annexin V and 7-AAD (7-aminoactinomycin D). The DNA intercalating molecule 7AAD (7-aminoactinomycin D) is used as an indicator of cell membrane integrity, since it binds DNA only in cells undergoing late apoptosis/death stage, when the membrane integrity is lost. Muse Annexin V and Dead Cell reagent were used to dilute the cells (1:1). After 20 min of incubation between cell samples and the kit at room temperature in the dark, the samples were analyzed using 0.01% Triton X-100 as positive control. The data were acquired and recorded using the Annexin V and Dead Cell software module (Millipore, Billerica, MA, USA).

As for `O=C(/C=C/c1ccc(O)c(O)c1)Nc1nc2ccccc2s1` [BZTcin4, (E)-N-(benzo[d]thiazol-2-yl)-3-(3,4-dihydroxyphenyl)acrylamide], under “5 µM”, the “Dead (%)” value came to 0.41%, the “Early Apoptosis (%)” value is recorded as 1.83% and the “Late Apoptosis (%)” value worked out at 3.05%. Moreover, where the note is “10 µM”, the “Dead (%)” value came out at 1.96%, the “Early Apoptosis (%)” value worked out at 1.13% and the “Late Apoptosis (%)” value is recorded as 15.56%.
`COc1ccc(/C=C/C(=O)Nc2nc3ccccc3s2)cc1O` [BZTcin5, (E)-N-(benzo[d]thiazol-2-yl)-3-(3-hydroxy-4-methoxyphenyl)acrylamide]: for the setting “50 µM”, the “Dead (%)” value is reported as 0.19%, the “Early Apoptosis (%)” value came to 2.29% and the “Late Apoptosis (%)” value came to 3.73%. In addition, under “100 µM”, the “Dead (%)” value was 0.20%, the “Early Apoptosis (%)” value is on record as 1.84% and the “Late Apoptosis (%)” value is given as 5.00%.
